Converted amounts (≈) assume the structure as drawn.
Legend:
Test in all cases: agar-dilution MIC
Type in all cases: cell-based
[1] = test system: Klebsiella pneumoniae X68
[2] = test system: Klebsiella pneumoniae KAE
[3] = test system: Haemophilus influenzae C.L.
[4] = test system: Streptococcus faecium ATCC 9790
[5] = test system: Streptococcus sp. group D 2041
[6] = test system: Haemophilus influenzae 76
[7] = test system: Streptococcus pyogenes C203

SMILES: CN[C@H](CC(C)C)C(=O)N[C@H]1C(=O)N[C@@H](CC(N)=O)C(=O)N[C@H]2C(=O)N[C@H]3C(=O)N[C@H](C(=O)N[C@H](C(=O)O)c4cc(O)cc(O)c4-c4cc3ccc4O)[C@H](O)c3ccc(c(Cl)c3)Oc3cc2cc(c3O[C@@H]2O[C@H](CO)[C@@H](O)[C@H](O)[C@H]2O[C@H]2C[C@](C)(N)[C@H](O)[C@H](C)O2)Oc2ccc(cc2Cl)[C@H]1O [Vancomycin]
- MIC [1]: > 128 µg/mL
- MIC [2]: > 128 µg/mL
- MIC [3]: 64 µg/mL (≈ 44.2 µM)
- MIC [4]: 1 µg/mL (≈ 0.69 µM)
- MIC [5]: 4 µg/mL (≈ 2.76 µM)
- MIC [6]: 128 µg/mL (≈ 88.3 µM)
- MIC [7]: 0.5 µg/mL (≈ 0.345 µM)

Reference: patent publication US4547488A, “Antibiotic M43D, pharmaceutical compositions and method of use” (priority 1984, dated 1985)
